# According to patent US12116564B2, “Cells expressing recombinant growth factor receptors” (INSTIL BIO (UK) LIMITED, priority 2015, dated 2024):
# T1: TpoR F104S (Homo sapiens, UniProt P40238, F104S)
# T1 sequence (P40238 26-635 F104S): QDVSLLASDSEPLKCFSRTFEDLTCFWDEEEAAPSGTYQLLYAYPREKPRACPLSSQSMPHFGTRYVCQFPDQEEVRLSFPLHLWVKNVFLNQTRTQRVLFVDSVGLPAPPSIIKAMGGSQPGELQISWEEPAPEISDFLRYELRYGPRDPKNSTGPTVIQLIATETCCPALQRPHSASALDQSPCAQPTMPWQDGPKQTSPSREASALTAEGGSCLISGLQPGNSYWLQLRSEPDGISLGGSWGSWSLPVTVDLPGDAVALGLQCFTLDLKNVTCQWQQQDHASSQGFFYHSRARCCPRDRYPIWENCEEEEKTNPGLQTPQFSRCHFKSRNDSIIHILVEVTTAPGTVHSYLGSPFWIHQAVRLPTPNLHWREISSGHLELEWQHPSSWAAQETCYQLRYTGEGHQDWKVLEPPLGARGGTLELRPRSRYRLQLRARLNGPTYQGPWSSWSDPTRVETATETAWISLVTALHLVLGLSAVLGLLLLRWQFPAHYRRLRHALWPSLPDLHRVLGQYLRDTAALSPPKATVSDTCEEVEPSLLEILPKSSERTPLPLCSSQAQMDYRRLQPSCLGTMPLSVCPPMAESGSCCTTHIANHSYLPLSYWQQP
# B1: Tpo: recombinant human Tpo (Miltenyi Biotec), native ligand of the thrombopoietin receptor (protein)
# chain: SPAPPACDLRVLSKLLRDSHVLHSRLSQCPEVHPLPTPVLLPAVDFSLGEWKTQMEETKAQDILGAVTLLLEGVMAARGQLGPTCLSSLLGQLSGQVRLLLGALQSLLGTQLPPQGRTTAHKDPNAIFLSFQHLLRGKVRFLMLVGGSTLCVRRAPPTTAVPSRTSLVLTLNEL
# Legend:
# [1] = test system: WT TpoR transduced primary human T-cells; type: cell-based; conditions: for response in relative increase of cell number as concentration increases: varying concentrations, three and five days
# Experimental: Transduced primary human T-cells were incubated with the indicated concentrations of each drug and cells counted after three and five days
# (§1) Following expansion cells were washed excessively to remove any exogenous IL2 and plated into 96-well U-bottom plates. Cells were supplemented with IL2 (Proleukin), recombinant human Tpo (Miltenyi Biotec) or Eltrombopag (Stratech Scientific, Suffolk, UK). At various time points thereafter cells were either stained with a 1:400 dilution of eFlor-450 fixable viability dye (eBioscience, UK) and counted directly from the wells using a MACSQuant Cytometer, or were stained with viability dye plus phycoerythrin conjugated anti-CD110 antibodies (Miltenyi Biotec, UK) and analysed using a MACSQuant cytomter. Cell viability and/or transduction level was then analysed using MACSQuantify software (Miltenyi Biotec, UK).
# After three and five days the cells were stained with EFlor-450 Live/dead fixable viability dye and the cells in each well counted by flow cytometry.
# [2] = test system: primary human T-cells harbouring the mt TpoR; assay: Enrichment of TpoR+ cells (anti-CD110 flow cytometry), mt (truncated) TpoR T-cells diluted to 20% transduction; type: cell-based; conditions: for TpoR positive cells after enrichment: start 20% transduced, up to nine days
# Experimental: as §1, with “FIG. 6—Enrichment kinetics of modular T-cell growth signal receptor engineered T-cells to varying concentrations of IL-2, Eltrombopag (Elt) or thrombopoietin (Tpo). Transduced primary human T-cells were diluted with non-transduced cells to a 20% transduction level. Cells were incubated with the indicated concentrations of each drug and the enrichment of each population established at the indicated time points by staining cells with anti-CD110-PE antibodies. Following expansion” for “Following expansion”, “Biotec, UK). Additional cells were diluted with non-transduced cells to achieve a population with 20% transduction efficiency. […] After three, six and nine days the cells were stained with anti-CD110 (TpoR) antibodies and analysed by flow cytometry.” for “Biotec, UK).”
# [3] = test system: melanoma TIL transduced with WT TpoR; assay: Enrichment of TpoR+ cells in WT TpoR transduced melanoma tumour infiltrating lymphocytes; type: cell-based, human; conditions: for TpoR+ cells after enrichment: from 65% TpoR+
# Experimental: FIG. 12—Analysis of WT TpoR activity in Melanoma Tumour Infiltrating Lymphocytes. Tumour infiltrating lymphocytes (TIL) established from a cutaneous melanoma lesion were lentivirally transduced with the WT TpoR rGFR. The TIL were incubated in the presence of 200 IU/ml IL2 or the indicated concentrations of Tpo or Eltrombopag. At days 2 and 5 cells were removed, stained with PE conjugated anti-CD110 antibodies and analysed using a MACSQuant analyser.
# Next we aimed to determine whether the WT TpoR was functionally active in Tumour Infiltrating Lymphocytes (TIL). It was possible that the high doses of IL2 used to generate TIL cultures could make them more dependent on IL2 for subsequent growth. To this end we added lentiviral supernatants to melanoma TIL cultures. Cells were transduced to 65% (FIG. 12). The TILs were cultured in the presence of 200 IU/ml IL-2, or Eltrombopag or Tpo. Cells were analysed for TpoR expression at days 2 and 5. […] In contrast there was no enrichment of TpoR+ cells in the presence of IL2 supporting the notion that this is driven by signals through the TpoR.
# [4] = test system: primary human T-cells harbouring the WT TpoR; assay: Enrichment of TpoR+ cells (anti-CD110 flow cytometry), WT TpoR T-cells diluted to 20% transduction; type: cell-based; conditions: for TpoR positive cells after enrichment: start 20% transduced, up to nine days
# Experimental: as §1, with “FIG. 6—Enrichment kinetics of modular T-cell growth signal receptor engineered T-cells to varying concentrations of IL-2, Eltrombopag (Elt) or thrombopoietin (Tpo). Transduced primary human T-cells were diluted with non-transduced cells to a 20% transduction level. Cells were incubated with the indicated concentrations of each drug and the enrichment of each population established at the indicated time points by staining cells with anti-CD110-PE antibodies. Following expansion” for “Following expansion”, “Biotec, UK). Additional cells were diluted with non-transduced cells to achieve a population with 20% transduction efficiency. […] After three, six and nine days the cells were stained with anti-CD110 (TpoR) antibodies and analysed by flow cytometry.” for “Biotec, UK).”
# [5] = 73 healthy volunteers, higher doses; cited from earlier work
# TpoR F104S = biological target: T1, TpoR F104S; conditions: Fox et al 2010; cited from earlier work
# [6] = test system: Ba/F3 cells transduced with TpoR-HGHR variant; assay: Enrichment of transduced Ba/F3 cells, TpoR-HGHR; type: cell-based, murine; conditions: 0.5 μM Eltrombopag or 1.0 μM Tpo; days 3, 5 and 7
# Experimental: (§2) FIG. 10—Analysis of rGFR variants in Ba/F3 cells. The IL3 dependent cell line Ba/F3 was transduced with the indicated rGFR variants and incubated in the presence of 1 μM Tpo, 0.5 μM Eltrombopag or 0.5 ng/ml IL3. Cells were taken at days 3, 5 and 7 stained with PE conjugated anti-CD110 antibodies and analysed using a MACSQuant analyser.
# (§3) To determine whether the new variants generated were functionally active we transduced the IL3 dependent cell line Ba/F3 and incubated the cells with either IL-3, 0.5 μM Eltrombopag or 1.0 μM Tpo and measured the proportion of cells expressing the indicated TpoR at days 3, 5 and 7.
# [7] = test system: Ba/F3 cells transduced with F104S TpoR variant; assay: Enrichment of transduced Ba/F3 cells, F104S TpoR; type: cell-based, murine; conditions: 0.5 μM Eltrombopag or 1.0 μM Tpo; days 3, 5 and 7
# Experimental: as §2, §3
# [8] = test system: Ba/F3 cells transduced with WT TpoR; assay: Enrichment of transduced Ba/F3 cells, WT TpoR; type: cell-based, murine; conditions: 0.5 μM Eltrombopag or 1.0 μM Tpo; days 3, 5 and 7
# Experimental: as §2, §3
# [9] = test system: Ba/F3 cells transduced with TpoR-PrIR variant; assay: Enrichment of transduced Ba/F3 cells, TpoR-PrIR; type: cell-based, murine; conditions: 0.5 μM Eltrombopag or 1.0 μM Tpo; days 3, 5 and 7; compared with the other variants
# Experimental: as §2, §3
Molecule,response in relative increase of cell number as concentration increases [1],enrichment of TpoR positive cells over time ([2]; 100 IU/ml IL-2 alone),enrichment of TpoR+ cells ([3]; 200 IU/ml IL-2),enrichment of TpoR positive cells over time ([4]; 100 IU/ml IL-2 alone),"concentration at which responses (relative increase of cell number) are maximal ([1]; 94% transduced, 5×10^4 cells/well, counted after three and five days)",toxicity to the T-cells ([1]; concentrations above around 0.1 μM),TpoR positive cells after enrichment ([2]; 0.5 μM Eltrombopag),TpoR+ cells after enrichment ([3]; high (1.0 μM) Eltrombopag),TpoR+ cells after enrichment ([3]; low (0.1 μM) Eltrombopag),TpoR positive cells after enrichment ([4]; 0.5 μM Eltrombopag),tolerability [5],effect of the F104S extracellular point mutation on responsiveness to the ligand (TpoR F104S),maximal response compared with Eltrombopag or IL-2 ([1]; possibly optimal concentrations not used),TpoR positive cells after enrichment ([2]; 10.0 μM Tpo),functional activity (enrichment of transduced cells) [6],enrichment of transduced cells [7],enrichment of transduced cells [8],enrichment of TpoR+ T-cells ([3]; high (1 μM) Tpo),functional activity (enrichment of transduced cells) [9],TpoR positive cells after enrichment ([4]; 10.0 μM Tpo)
"IL-2: IL2 (Proleukin), cytokine normally required for optimal T-cell growth",dose dependent responses,did not become enriched over time,no enrichment,did not become enriched over time,,,,,,,,,,,,,,,,
CC1=NN(c2ccc(C)c(C)c2)C(=O)/C1=N\Nc1cccc(-c2cccc(C(=O)O)c2)c1O [Eltrombopag],,,,,around 0.1 μM,becoming toxic,66.6%,90%,89%,83.5%,without tolerability problems,,,,,,,,,
B1,dose dependent responses,,,,,,,,,,,prevent responsiveness,did not see maximal responses to Tpo comparable to those seen with Eltrombopag or IL-2,77.9%,functional activity,much reduced activity,able to support the enrichment of transduced cells,able to induce enrichment,less robust responses,87.5%
